Data as given in a melting point compilation (Tetko et al.; mined from patent text by program, amines drawn as free bases though some values may be those of a salt).

In the case of `Oc1ccc(F)cc1-c1cc(-c2ccc(-c3ccccc3)cc2)cc(-c2ccc3ccccc3c2)n1`, the melting point is reported as 187 to 188 °C. With `CN1C(=O)[C@H](NC(=O)CCCc2ccccc2)N=C(c2ccccc2)c2ccccc21` the melting point was 65 to 74 °C. Compound `Cc1ccc(Nc2nc(Cl)nc(Cl)n2)cc1F` has a melting point of 130 °C. Compound `CC(=O)OCC12CCC(=O)C=C1CCC1C2CCC2(C)C(O)CCC12` (stereo not drawn) has a melting point of 125 to 127 °C. Compound `CN(C)C(=O)Nc1c(C(=O)c2occc2CO)[nH]c2cc(Cl)ccc12` has a melting point of 238 °C. Work on `O=c1[nH]c2cc([N+](=O)[O-])c(-n3ccc(C=NO)c3)cc2n(C2CCCCC2)c1=O` yielded a melting point of 234 °C. Work on `CC(CS)C(=O)N1CC(Oc2ccc(CC3Nc4cc(Cl)c(S(N)(=O)=O)cc4S(=O)(=O)N3C)cc2)CC1C(=O)O` (stereo not drawn) yielded a melting point of 192 to 197 °C. For `FC1(c2cn(-c3ccc(Br)cc3)nn2)CN2CCC1CC2` (stereo not drawn), the melting point was 127 °C. For `COC(=O)c1ccccc1NC(=O)N(C)CCO`, the melting point was 90 °C. `CCOC(=O)c1cnn2c1nc(NC(C)CC)c1cnc3c(cnn3CC)c12` (stereo not drawn) gave a melting point of 94 to 97 °C. In the case of `Clc1nc(OC(Cl)(Cl)Cl)cc(C(Cl)(Cl)Cl)n1`, the melting point is reported as 67 to 69 °C. `CCC1(c2cccc(O)c2)CCCCN(C)C1` (stereo not drawn) showed a melting point of 128 to 133 °C. Compound `OC1CSC(Oc2cncc(C(F)(F)F)c2)C(O)C1O` (stereo not drawn) has a melting point of 160 to 161 °C. For `CCc1cc(=O)n(-c2cc3[nH]c(=O)sc3cc2F)c(=O)n1C`, the melting point was > 250 °C. Work on `C=C(F)C(C)(C)C(=O)Nc1ccc(Cl)cc1` yielded a melting point of 75 to 76 °C. With `Cn1ncc(C(=O)N2CCC2)c1C(=O)Nc1ccn2nc(-c3ccnc(F)c3)nc2c1` the melting point was > 280 °C. `Fc1ccc(C(F)(F)F)cc1Nc1nc2ccccc2o1` showed a melting point of 164 to 165 °C. Work on `N#Cc1ccc(CN2CCNC2=O)cc1` yielded a melting point of 127 to 133 °C. With `CC(C)CCn1cc(C(=O)c2ccccc2)c(=O)c2cn(C)nc21` the melting point was 231 to 233 °C. `CCCc1c(OCC(C)CC(=O)NC(C)CCCc2cccnc2)ccc(C(C)=O)c1O` (stereo not drawn) gave a melting point of 77 to 83 °C. Work on `CCOC(=O)c1cccc(-c2coc3c(C)c(O)ccc3c2=O)c1` yielded a melting point of 222 °C. Work on `CCc1ccc(Oc2ccc(N3CCN(c4cccc(C)c4)CC3)nn2)cc1` yielded a melting point of 107 °C. With `CC(C)C[C@H](NC(=O)[C@@H](N)Cc1c[nH]cn1)[C@@H](O)c1nccs1` the melting point was 118 to 126 °C. Compound `NC(=O)C[C@H](NC(=O)CCc1ccc(OCc2ccccc2)cc1OCc1ccccc1)C(=O)N1CCN(c2ccccc2)CC1` has a melting point of 96 to 98 °C. With `COC(=O)c1cc(I)c(F)c(I)c1Cl` the melting point was 155 °C. Compound `O=C(O)c1c(F)cc(OCCNC(=O)C2Cc3ccccc3N2S(=O)(=O)c2ccc(-c3ccc(F)cc3Cl)cc2)cc1F` (stereo not drawn) has a melting point of 75 to 80 °C. For `CCOC(=O)c1ncn(-c2nncs2)c1Cl`, the melting point was 184 to 185 °C. `CC(C)(Oc1ccc(C#N)cc1)C(O)Cc1ccncn1` (stereo not drawn) showed a melting point of 96 to 98 °C. Compound `Cc1noc(NS(=O)(=O)c2ccccc2-c2ccc(-c3ncco3)cc2CN(C)C(=O)c2ccccc2F)c1C` has a melting point of 127 to 137 °C. Work on `COc1cc(N)c(Cl)cc1C(=O)NCCC1CN(Cc2ccc(C#N)cc2)CCO1` (stereo not drawn) yielded a melting point of 180 to 182 °C. Compound `O=C(O)C=CC(=O)c1cccs1` has a melting point of 139 to 142 °C. Compound `Nc1nc(N)c(-c2cc(Cl)cc(Cl)c2Cl)c(CO)n1` has a melting point of 101 to 105 °C. `CC(O)c1cccc(-c2ccc(CC34CCCN3C(=O)N(c3cc(Cl)cc(Cl)c3)C4=O)cc2)c1` (stereo not drawn) showed a melting point of 66.5 °C. `CCc1cc(C(=O)c2ccccc2Cl)c(-n2c(CNC(=O)c3cc4ccccc4[nH]3)nnc2C23CC4CC(CC(C4)C2)C3)s1` gave a melting point of 283 to 286 °C. `FC(F)(F)c1cc(C(F)(F)F)n(-c2ccc(Nc3noc4ccccc34)cc2)n1` gave a melting point of 209 to 210 °C. With `O=C(Nc1cccc(C(F)(F)F)c1)c1cccnc1Cl` the melting point was 117 to 118 °C. `COc1cccc(NC(=O)O[C@@H]2CN=C(c3ccccc3)O[C@H]2c2ccccc2)c1` (racemic) gave a melting point of 110 °C. In the case of `COc1cc(C2CC(=O)NC(=O)C2)cc2c(C)c(C)oc12`, the melting point is reported as 220 to 222 °C.
